Reference: US20140017223A1, “Pharmaceutical Compositions Comprising A Pancreatic Enzyme Preparation With Viral Infectivity Reduced Below A Significant Level And Methods Of Preparing And Using The Same” (Aptalis Pharma Canada Inc., priority 2010, published 2014)

Legend:
PPV [1] = assay: Inactivation of spiked PPV in pancrelipase (PEP) by BPL, PPV titered by dilution method (Example 1); format: cell-based, porcine parvovirus (PPV); settings: 48 h, 20° C.; for Detected PPV Titer: 0*=below detection limit of 10^3 FFID50/g
Experimental: For example, two preparations can be tested for PPV or another virus on one 96-well plate, with the positive controls incubated on another parallel plate. For PPV the samples can be serially diluted (for example, 1:4 in each step for a total of 8 dilutions) in cell culture medium prior to application and incubated with cell cultures for at least 5 days at 37° C. in 5% CO2. After sample removal and the fixation of the cells by paraformaldehyde, the presence of PPV (or other) virus infection is monitored in each well by an anti-PPV antibody using a standard immunofluorescent assay. The number of wells that contain positively stained cells are recorded in a table. Fluorescence Focus Infectious Doses (FFID50) are calculated according to the Karber formula: […]
All data are recalculated for 1-gram dry PEP, e.g., pancrelipase, sample after the consideration of processed sample volumes and dilutions. In certain embodiments, the assay is repeated several times using six parallel wells to quantify the level of infectious viruses.
(§1) Pancrelipase powders from 2 different lots were each dissolved in 100 mM Tris, pH=8.3, at a concentration of 100 mg/ml. Two ml non-purified PPV viral stock (prepared using standard protocols (Arella et al., Physicichemical properties, production, and purification of parvoviruses. 1990, In Tijssen, P. (ed.), CRC handbook of parvoviruses. Boca Raton, Fla.: CRC Press, 11-30)) were added to 38 ml of the pancrelipase solution. The virus was mixed with the PEP using slow shaking at room temperature for one day. Aliquots were taken from the PPV-spiked pancrelipase stocks and each was incubated with different concentrations of BPL (available from Sigma-Aldrich, St. Louis, Mo.) (except the control) for 48 hours at room temperature (20° C.). The level of viral inactivation was measured by the titration of PPV infectivity using serial dilutions of 1,000 times or more since the titer of spiked virus was high. Determination of the FFID50 was performed using the fluorescence assay as described in the PPV FFID-infectivity assay of U.S. Patent Publication No. 2009/0226414.

PPV [2] = assay: Inactivation of spiked PPV in PEP by BPL, PPV titered by chloroform/PEG method (Example 3); format: cell-based, porcine parvovirus (PPV)
Source text: U.S. Patent Publication No. 2009/0226414, incorporated by reference herein, provides a reproducible and efficient method for detecting an infectious non-enveloped virus, such as PPV, in an enzyme preparation (e.g., a pancreatic enzyme preparation) by treating the preparation prior to determining its viral infectivity. This method preserves the infectious non-enveloped virus while substantially eliminating the toxic enzyme materials from the PEP samples.
The steps of this method include:
(a) extracting a sample of the preparation at least two times with chloroform to produce a clarified sample with an upper phase and a lower phase;
(b) precipitating an aliquot of the upper phase from step (a) with polyethylene glycol (PEG);
(c) suspending the product from step (b) in a buffer;
(d) precipitating the product from step (c) with PEG;
(e) suspending the product from step (d) in a solution;
(f) removing excess PEG and fine particles from product (e) by chloroform, this allows (i) in step (e) the suspending in a 10-times smaller volume to increase the overall sensitivity up to 10-fold; and (ii) removal of the remaining interfering materials from the least diluted steps of the most toxic samples; and
(g) detecting the presence of or measuring the amount of infectious virus in the solution.
as §1, with “The level of viral inactivation was measured by the titration of PPV infectivity using serial dilutions of 1,000 times or more since the titer of spiked virus was high.” left out
The experiment described in Example 1 was repeated except PEG-purified PPV was used for the infectivity assay as described in U.S. Patent Publication No. 2009/0226414.

protease = assay: Protease activity of pancrelipase after BPL treatment, freezing and lyophilization (USP 31 method); format: biochemical; settings: for Loss of Protease Activity: pancrelipase, freezing, lyophilization, precision 5-10%
Experimental: Enzymatic activity for the enzymes of a PEP (e.g., proteases, lipases, and amylases) can be determined, for example, by using the United States Pharmacopeia (USP) monographed methods (The United States Pharmacopeia and the National Formulary (USP 31/NF 26). 2008. Rockville (MD): United States Pharmacopeial Convention, Inc.).
The samples c-d from all the experiments were tested for lipase, protease, and amylase enzymatic activity using USP 31 monographed methods. See Example 11 and Table 11.
Table 11 presents the lipase, protease, and amylase activity for aliquots of the pancrelipase after BPL treatment for 30 min at 25° C. followed by freezing and lyophilization (same treatment as for samples in Example 10).

## O=C1CCO1 [BPL, Beta-propiolactone]
PPV [1]; PEP #1, 0.1% (v/v) BPL
  PPV Titer reduction: 2.37 × 10^3 FFID50/g
  Detected PPV Titer: 4.22 × 10^4 FFID50/g
PPV [1]; PEP #1, 0.2% (v/v) BPL
  PPV Titer reduction: >10^5 FFID50/g
  Detected PPV Titer: < 0* FFID50/g
PPV [1]; PEP #1, 0.4% (v/v) BPL
  PPV Titer reduction: >10^5 FFID50/g
  Detected PPV Titer: < 0* FFID50/g
PPV [1]; PEP #1, 0.8% (v/v) BPL
  PPV Titer reduction: >10^5 FFID50/g
  Detected PPV Titer: < 0* FFID50/g
PPV [1]; PEP #2, 0.1% (v/v) BPL
  PPV Titer reduction: 2.37 × 10^3 FFID50/g
  Detected PPV Titer: 4.22 × 10^4 FFID50/g
PPV [1]; PEP #2, 0.2% (v/v) BPL
  PPV Titer reduction: >10^5 FFID50/g
  Detected PPV Titer: < 0* FFID50/g
PPV [1]; PEP #2, 0.4% (v/v) BPL
  PPV Titer reduction: >10^5 FFID50/g
  Detected PPV Titer: < 0* FFID50/g
PPV [1]; PEP #2, 0.8% (v/v) BPL
  PPV Titer reduction: >10^5 FFID50/g
  Detected PPV Titer: < 0* FFID50/g
PPV [1]; PEP #3, 0.1% (v/v) BPL
  PPV Titer reduction: 4.22 × 10^3 FFID50/g
  Detected PPV Titer: 5.62 × 10^4 FFID50/g
PPV [1]; PEP #3, 0.2% (v/v) BPL
  PPV Titer reduction: >10^5 FFID50/g
  Detected PPV Titer: < 0* FFID50/g
PPV [1]; PEP #3, 0.4% (v/v) BPL
  PPV Titer reduction: >10^5 FFID50/g
  Detected PPV Titer: < 0* FFID50/g
PPV [1]; PEP #3, 0.8% (v/v) BPL
  PPV Titer reduction: >10^5 FFID50/g
  Detected PPV Titer: < 0* FFID50/g
PPV [1]; PEP #4, 0.1% (v/v) BPL
  PPV Titer reduction: 1.33 × 10^8 FFID50/g
  Detected PPV Titer: < 0* FFID50/g
PPV [1]; PEP #4, 0.2% (v/v) BPL
  PPV Titer reduction: >10^5 FFID50/g
  Detected PPV Titer: < 0* FFID50/g
PPV [1]; PEP #4, 0.4% (v/v) BPL
  PPV Titer reduction: >10^5 FFID50/g
  Detected PPV Titer: < 0* FFID50/g
PPV [1]; PEP #4, 0.8% (v/v) BPL
  PPV Titer reduction: >10^5 FFID50/g
  Detected PPV Titer: < 0* FFID50/g
PPV [2]; PEP #1, 0.04% (v/v) BPL
  PPV Titer reduction: 10 FFID50/g
PPV [2]; PEP #1, 0.10% (v/v) BPL
  PPV Titer reduction: 10 FFID50/g
PPV [2]; PEP #1, 0.25% (v/v) BPL
  PPV Titer reduction: 10^5 FFID50/g
PPV [2]; PEP #2, 0.04% (v/v) BPL
  PPV Titer reduction: 10 FFID50/g
PPV [2]; PEP #2, 0.10% (v/v) BPL
  PPV Titer reduction: 10^2 FFID50/g
PPV [2]; PEP #2, 0.25% (v/v) BPL
  PPV Titer reduction: 10^5 FFID50/g
PPV [2]; PEP #3, 0.04% (v/v) BPL
  PPV Titer reduction: 10 FFID50/g
PPV [2]; PEP #3, 0.10% (v/v) BPL
  PPV Titer reduction: 10^2 FFID50/g
PPV [2]; PEP #3, 0.25% (v/v) BPL
  PPV Titer reduction: 10^5 FFID50/g
PPV [2]; PEP #4, 0.04% (v/v) BPL
  PPV Titer reduction: 10 FFID50/g
PPV [2]; PEP #4, 0.10% (v/v) BPL
  PPV Titer reduction: 10^2 FFID50/g
PPV [2]; PEP #4, 0.25% (v/v) BPL
  PPV Titer reduction: 10^4 FFID50/g
protease; lyophilized samples treated with 0.4% BPL and 0.8% BPL
  Protease activity maintained: maintained the majority
protease; 0.4% BPL 30 min 25° C.
  Loss of Protease Activity: 0%
protease; 0.8% BPL 30 min 25° C.
  Loss of Protease Activity: 0%
